# Experimental data taken from patent US20090176759A1, “LEUKEMIC STEM CELL ABLATION” (ChemGenex Pharmaceuticals, Inc., priority 2007, published 2009).
# Key:
# [1] = tested on: leukemia stem cells (GFP+Lin− c-Kit+Sca-1+); assay: Bone marrow cells from CML mice cultured in vitro with HHT, FACS analysis of leukemia stem cells; type: cell-based
# Experimental: FIG. 5A is a FACS analysis of bone marrow cells isolated from mice with BCR-ABL-WT-induced CML were cultured in vitro (5×10^6 cells/6 cm tissue culture plate) in the presence of different doses of HHT for 6 days (changing the stem cell medium containing placebo or HHT at day 3) followed by FACS analysis of leukemia stem cells (GFP+Lin− c-Kit+Sca-1+). FIG. 5B depicts bar graphs for the leukemic cells and leukemic stem cells. […] Bone marrow cells were isolated from the treated CML mice, and leukemia stem cells were analyzed by FACS. The numbers of cells represent total leukemia stem cells in average from femur and tibia of each treated CML mouse.
# FIG. 5A is a FACS analysis of bone marrow cells isolated from mice with BCR-ABL-WT-induced CML that were cultured in vitro (5×10^6 cells/6 cm tissue culture plate) in the presence of different doses of HHT for 6 days (changing the stem cell medium containing placebo or HHT at day 3) followed by FACS analysis of leukemia stem cells (GFP+ Lin− c-Kit+Sca-1+). FIG. 5B depicts bar graphs for the leukemic cells and leukemic stem cells.
# IM-resistant T315I+CML = assay: Multicenter open-label phase 2/3 study of subcutaneous omacetaxine, efficacy; type: in vivo, human
# Excerpt: As used herein, a cytological response to treatment with cephalotaxine and/or TKI is a response that occurs in the bone marrow rather than just in the peripheral blood. There are at least three cytological responses: (1) a cytogenetic response (CR); (2) a major cytogenetic response (MCR); and a complete cytogenetic response (CCR). Determination of such responses is based on the measurement of the number of peripheral blood and/or bone marrow cells having a marker that is associated with a particular leukemia. Such markers include cell surface antigens, aberrant proteins, and genetic modifications. A cytogenetic response occurs if the number or percentage of cells with such a marker decreases during treatment. A major cytogenetic response occurs if the number or percentage of such cells falls below 35%. A complete cytogenetic response occurs when no cells containing the marker are detected. For example, CML is characterized by the Ph+ chromosome. A cytogenetic response has occurred if the number of Ph+ chromosomes decreases at all during treatment. If the Ph+ percentage drops to 35% or less, it is considered a major cytogenetic response; 0% Ph+ is a complete cytogenetic response.
# As used herein, a hematological response occurs when there is a change in the white blood cell count of a patient following treatment with cephalotaxine and/or TKI. The change in white blood cell count can be in the peripheral blood and the bone marrow although the change may be observed only in the peripheral blood. The response can be a partial reduction in white cell count or complete reduction to normal values (e.g. 10,000-12,000 cells […].)
# This example summarizes human clinical trials using HHT to treat patients with IM-resistant T315I+CML.
# (§1) A multicenter open-label phase 2/3 study evaluating safety and efficacy of omacetaxine administered subcutaneously (SC) in patients with IM-resistant T315I+CML in all phases of the disease is being conducted.
# (§2) Induction phase—1.25 mg/m2 twice daily SC for 14 consecutive days every 28 days until complete hematologic response (CHR) or hematologic improvement has been achieved.
# (§3) Maintenance therapy—1.25 mg/m2 twice daily SC for 7 days every 28 days for up to 24 months.
# (§4) Doses were adjusted to maintain adequate WBC and platelet control by increasing or decreasing the number of days of administration of omacetaxine.
# [2] = Phase 2/3 study of subcutaneous omacetaxine, safety and tolerability; type: in vivo, human
# Experimental: as §1, §2, §3, §4
# Includes all events considered related, probably related, possibly related, or with unknown relationship to omacetaxine treatment. Events listed in the table are included if occurrence was >5% of the total population (at least 1 of 23 patients).
# [3] = in vitro, different doses of HHT for 6 days
# [4] = Accelerated Phase, N = 5, median (range)
# [5] = Chronic Phase, N = 20, median (range)
compound,measurement,setting,value
"COC(=O)C[C@](O)(CCCC(C)(C)O)C(=O)O[C@@H]1C(OC)=C[C@]23CCCN2CCc2cc4c(cc2[C@H]13)OCO4 [HHT, Homoharringtonine]",proliferation of BCR-ABL-expressing leukemic stem cells,[1],inhibits the proliferation
same,number of leukemic cells,[1]; [3],reduces
same,number of leukemic stem cells,[1]; [3],reduces
same,"Median Duration of Response, Cytogenetic Response Minimal","IM-resistant T315I+CML; Accelerated Phase, N = 5",2.3 Months
same,"Median Duration of Response, Hematologic Response HI","IM-resistant T315I+CML; Accelerated Phase, N = 5",2.8 Months
same,"Median Duration of Response, Hematologic Response CHR",IM-resistant T315I+CML; [4],9.6 (8.3-10.9+) Months
same,"Median Duration of Response, Hematologic Response RCP",IM-resistant T315I+CML; [4],2.0 (2.0-2.0+) Months
same,Complete Hematologic Response (CHR),"IM-resistant T315I+CML; Accelerated Phase, N = 11",2 (18) Number (%)
same,"Cytogenetic Response, Minimal","IM-resistant T315I+CML; Accelerated Phase, N = 11",1 (9) Number (%)
same,"Cytogenetic Response, Overall","IM-resistant T315I+CML; Accelerated Phase, N = 11",1 (9) Number (%)
same,Hematologic Improvement (HI),"IM-resistant T315I+CML; Accelerated Phase, N = 11",1 (9) Number (%)
same,"Hematologic Response, Overall","IM-resistant T315I+CML; Accelerated Phase, N = 11",5 (45) Number (%)
same,Return to Chronic Phase (RCP),"IM-resistant T315I+CML; Accelerated Phase, N = 11",2 (18) Number (%)
same,"Median Duration of Response, Hematologic Response RCP","IM-resistant T315I+CML; Blast Phase, N = 1",3.4 Months
same,"Hematologic Response, Overall","IM-resistant T315I+CML; Blast Phase, N = 8",1 (13) Number (%)
same,Return to Chronic Phase (RCP),"IM-resistant T315I+CML; Blast Phase, N = 8",1 (13) Number (%)
same,"Median Duration of Response, Cytogenetic Response Partial","IM-resistant T315I+CML; Chronic Phase, N = 20",4.2 Months
same,"Median Duration of Response, Cytogenetic Response Complete",IM-resistant T315I+CML; [5],4.8 (0.3-9.7+) Months
same,"Median Duration of Response, Cytogenetic Response Minimal",IM-resistant T315I+CML; [5],4.0 (3.9-20.8+) Months
same,"Median Duration of Response, Hematologic Response CHR",IM-resistant T315I+CML; [5],11.5 (3.5-25.4+) Months
same,Complete Hematologic Response (CHR),"IM-resistant T315I+CML; Chronic Phase, N = 25",20 (80) Number (%)
same,"Cytogenetic Response, Complete","IM-resistant T315I+CML; Chronic Phase, N = 25",4 (16) Number (%)
same,"Cytogenetic Response, Minimal","IM-resistant T315I+CML; Chronic Phase, N = 25",2 (8) Number (%)
same,"Cytogenetic Response, Overall","IM-resistant T315I+CML; Chronic Phase, N = 25",7 (28) Number (%)
same,"Cytogenetic Response, Partial","IM-resistant T315I+CML; Chronic Phase, N = 25",1 (4) Number (%)
same,"Hematologic Response, Overall","IM-resistant T315I+CML; Chronic Phase, N = 25",20 (80) Number (%)
same,"Molecular Response, Major","IM-resistant T315I+CML; Chronic Phase, N = 25",2 (8) Number (%)
same,"Cytogenetic Response, Major*","IM-resistant T315I+CML; Chronic Phase, N = 25, one complete and one partial cytogenetic response are unconfirmed",5 (20) Number (%)
same,progression free survival,"IM-resistant T315I+CML; accelerated phase (AP), after one year",25%
same,progression free survival,"IM-resistant T315I+CML; blast phase (BP), after 6 months",44%
same,progression free survival,"IM-resistant T315I+CML; chronic phase (CP), after 1 year",80%
same,progression free survival,"IM-resistant T315I+CML; chronic phase (CP), after 2 years",70%
same,duration of complete hematologic and cytogenetic responses,IM-resistant T315I+CML; in vivo,up to one year
same,Treatment-Related Serious Adverse Events: Neutropenic Fever,[2]; Accelerated Phase,1 (9) Number (percent)
same,Treatment-Related Serious Adverse Events: Thrombocytopenia,[2]; Accelerated Phase,0 Number (percent)
same,Grade 3/4 Toxicities: Anemia,"[2]; Accelerated Phase, N = 5",2 (40) number (percent)
same,Grade 3/4 Toxicities: Diarrhea,"[2]; Accelerated Phase, N = 5",1 (20) number (percent)
same,Grade 3/4 Toxicities: Febrile neutropenia,"[2]; Accelerated Phase, N = 5",2 (40) number (percent)
same,Grade 3/4 Toxicities: Neutropenia,"[2]; Accelerated Phase, N = 5",2 (40) number (percent)
same,Grade 3/4 Toxicities: Pancytopenia,"[2]; Accelerated Phase, N = 5",2 (40) number (percent)
same,Grade 3/4 Toxicities: Thrombocytopenia,"[2]; Accelerated Phase, N = 5",3 (60) number (percent)
same,Treatment-Related Serious Adverse Events: Acute Coronary Syndrome*,"[2]; Accelerated Phase, N = 6",0 Number (percent)
same,Deaths on study,"[2]; BP patients with progressive disease, none considered related to the study drug",3 deaths
same,Grade 3/4 Toxicities: Anemia,"[2]; Blast Phase, N = 6",1 (17) number (percent)
same,Grade 3/4 Toxicities: Diarrhea,"[2]; Blast Phase, N = 6",1 (17) number (percent)
same,Grade 3/4 Toxicities: Febrile neutropenia,"[2]; Blast Phase, N = 6",2 (40) number (percent)
same,Grade 3/4 Toxicities: Neutropenia,"[2]; Blast Phase, N = 6",2 (33) number (percent)
same,Grade 3/4 Toxicities: Pancytopenia,"[2]; Blast Phase, N = 6",0 number (percent)
same,Grade 3/4 Toxicities: Thrombocytopenia,"[2]; Blast Phase, N = 6",1 (17) number (percent)
same,Treatment-Related Serious Adverse Events: Acute Coronary Syndrome*,"[2]; Blast Phase, N = 6",0 Number (percent)
same,Treatment-Related Serious Adverse Events: Neutropenic Fever,"[2]; Blast Phase, N = 6",1 (9) Number (percent)
same,Treatment-Related Serious Adverse Events: Thrombocytopenia,"[2]; Blast Phase, N = 6",0 Number (percent)
same,Grade 3/4 Toxicities: Anemia,"[2]; Chronic Phase, N = 12",7 (58) number (percent)
same,Grade 3/4 Toxicities: Diarrhea,"[2]; Chronic Phase, N = 12",2 (17) number (percent)
same,Grade 3/4 Toxicities: Febrile neutropenia,"[2]; Chronic Phase, N = 12",1 (9) number (percent)
same,Grade 3/4 Toxicities: Neutropenia,"[2]; Chronic Phase, N = 12",6 (50) number (percent)
same,Grade 3/4 Toxicities: Pancytopenia,"[2]; Chronic Phase, N = 12",1 (9) number (percent)
same,Grade 3/4 Toxicities: Thrombocytopenia,"[2]; Chronic Phase, N = 12",8 (67) number (percent)
same,Treatment-Related Serious Adverse Events: Neutropenic Fever,"[2]; Chronic Phase, N = 12",1 (9) Number (percent)
same,Treatment-Related Serious Adverse Events: Thrombocytopenia,"[2]; Chronic Phase, N = 12",1 (9) Number (percent)
same,Treatment-Related Serious Adverse Events: Acute Coronary Syndrome*,"[2]; Chronic Phase, N = 12, considered secondary to omacetaxine induced anemia",1 (9) Number (percent)
same,Grade 3/4 Toxicities: Anemia,"[2]; Total, N = 23",10 (43) number (percent)
same,Grade 3/4 Toxicities: Diarrhea,"[2]; Total, N = 23",4 (17) number (percent)
same,Grade 3/4 Toxicities: Febrile neutropenia,"[2]; Total, N = 23",5 (22) number (percent)
same,Grade 3/4 Toxicities: Neutropenia,"[2]; Total, N = 23",10 (43) number (percent)
same,Grade 3/4 Toxicities: Pancytopenia,"[2]; Total, N = 23",3 (13) number (percent)
same,Grade 3/4 Toxicities: Thrombocytopenia,"[2]; Total, N = 23",12 (52) number (percent)
same,Treatment-Related Serious Adverse Events: Acute Coronary Syndrome*,"[2]; Total, N = 23",1 (4) Number (percent)
same,Treatment-Related Serious Adverse Events: Neutropenic Fever,"[2]; Total, N = 23",3 (13) Number (percent)
same,Treatment-Related Serious Adverse Events: Thrombocytopenia,"[2]; Total, N = 23",1 (4) Number (percent)
same,"Grade 1/2 injection site erythema, patients",[2]; number (%) of patients,6 (23%)
same,"Grade 1/2 injection site pain, patients",[2]; number (%) of patients,3 (13%)
same,Dose delays,[2]; of induction cycles,75%
same,Dose delays,[2]; of maintenance cycles,80%
same,myelosuppression (most common side effect),[2]; subcutaneously administered,"usually transient and reversible, and rarely results in serious clinical complications"
same,tolerability,[2]; subcutaneously administered,generally well tolerated
